Laboratory results: patent US8148373B2, “Compounds” (AstraZeneca AB, priority 2008, dated 2012)

Columns and labels:
[1] = biological target: T1, Adrenergic β2 (H292 cells) (Homo sapiens, UniProt P07550); assay: Adrenergic β2 Mediated cAMP Production, single concentration 1 μM; format: cell-based; conditions: NCI-H292, 1 μM compound, percentage of the maximum response generated by 1E-07M formoterol, read-out: β2 (% effect at 1 μM)
T1 construct: endogenous in cells; host or cells: H292 cells
How it was run: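 H292 cells were plated overnight, pre-treated with 300 μM rolipram for 10 min, then exposed to compound at 1 μM final (1% DMSO) for 60 min at room temperature. cAMP in the lysates was measured by AlphaScreen against a standard curve and expressed as % of the maximal response to 1E-07M formoterol.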

[2] = biological target: T2, human muscarinic acetylcholine M3 receptor (M3-ACh) (Homo sapiens, UniProt P20309); assay: Muscarinic 3 Receptor Binding Assay, % inhibition specific binding at 1 μM; conditions: 1 μM compound, % inhibition specific [3H]-NMS binding
T2 construct: expressed in transfected cells; host or cells: CHO-K1 (Chinese Hamster Ovary) cell membranes
T2 sequence (P20309 whole entry): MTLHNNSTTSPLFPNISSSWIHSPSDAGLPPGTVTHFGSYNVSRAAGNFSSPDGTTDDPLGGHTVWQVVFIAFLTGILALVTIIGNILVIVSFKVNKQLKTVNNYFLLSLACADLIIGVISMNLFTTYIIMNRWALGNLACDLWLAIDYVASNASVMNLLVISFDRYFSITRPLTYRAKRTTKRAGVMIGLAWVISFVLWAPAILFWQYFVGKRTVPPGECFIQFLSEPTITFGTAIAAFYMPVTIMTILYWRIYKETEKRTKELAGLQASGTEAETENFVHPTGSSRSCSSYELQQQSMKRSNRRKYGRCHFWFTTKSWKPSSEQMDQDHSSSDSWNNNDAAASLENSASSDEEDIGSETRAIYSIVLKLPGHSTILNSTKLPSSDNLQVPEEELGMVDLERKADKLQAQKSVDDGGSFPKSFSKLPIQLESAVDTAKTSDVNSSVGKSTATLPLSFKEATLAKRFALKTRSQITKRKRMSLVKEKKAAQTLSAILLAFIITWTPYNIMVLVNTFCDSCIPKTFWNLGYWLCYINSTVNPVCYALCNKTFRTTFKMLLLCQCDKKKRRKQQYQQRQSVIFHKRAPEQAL
How it was run: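 Competition binding of 0.1 nM [3H]NMS to membranes from CHO-K1 cells expressing human M3, SPA format, with compound at 1 μM in 20 mM HEPES pH 7.4, 5 mM MgCl2, 1% DMSO. Incubated 16 h at room temperature; non-specific binding defined by 1 μM atropine; value is % inhibition of specific binding.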

T1 sequence (P07550 whole entry): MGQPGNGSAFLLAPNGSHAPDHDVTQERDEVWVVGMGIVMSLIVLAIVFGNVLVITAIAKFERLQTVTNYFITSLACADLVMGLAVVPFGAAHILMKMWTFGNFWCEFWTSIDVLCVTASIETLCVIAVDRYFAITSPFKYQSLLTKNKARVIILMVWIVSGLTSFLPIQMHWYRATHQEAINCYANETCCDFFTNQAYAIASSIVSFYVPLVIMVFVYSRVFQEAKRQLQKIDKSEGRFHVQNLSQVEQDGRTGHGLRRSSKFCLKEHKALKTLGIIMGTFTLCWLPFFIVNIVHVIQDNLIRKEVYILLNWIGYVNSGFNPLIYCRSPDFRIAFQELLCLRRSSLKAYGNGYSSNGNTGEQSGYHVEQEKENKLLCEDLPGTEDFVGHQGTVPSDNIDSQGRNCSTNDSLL

| SMILES | activation at 1 µM [1] | inhibition at 1 µM [2] |
| --- | --- | --- |
| O=C(c1ccnn1-c1ccccc1)N1CCOC2(CCN(Cc3cc(F)cc(CCNC[C@H](O)c4ccc(O)c5[nH]c(=O)sc45)c3)CC2)C1 [Example 160, (R)-7-(2-(3-fluoro-5-((4-(1-phenyl-1H-pyrazole-5-carbonyl)-1-oxa-4,9-diazaspiro[5.5]undecan-9-yl)methyl)phenethylamino)-1-hydroxyethyl)-4-hydroxybenzo[d]thiazol-2(3H)-one] | 91% | 5% |
| O=C([C@@H]1CCCO1)N1CCOC2(CCN(Cc3cc(F)cc(CCNC[C@H](O)c4ccc(O)c5[nH]c(=O)sc45)c3)CC2)C1 [Example 158, 7-((R)-2-(3-fluoro-5-((4-((S)-tetrahydrofuran-2-carbonyl)-1-oxa-4,9-diazaspiro[5.5]undecan-9-yl)methyl)phenethylamino)-1-hydroxyethyl)-4-hydroxybenzo[d]thiazol-2(3H)-one] | 95% | 72% |
| O=C(Cc1cccs1)N1CCOC2(CCN(CCCCCCCCCNC[C@H](O)c3ccc(O)c4[nH]c(=O)sc34)CC2)C1 [Example 185, (R)-4-hydroxy-7-(1-hydroxy-2-(9-(4-(2-(thiophen-2-yl)acetyl)-1-oxa-4,9-diazaspiro[5.5]undecan-9-yl)nonylamino)ethyl)benzo[d]thiazol-2(3H)-one] | 81% | 95% |
| O=C(c1cccc2[nH]ccc12)N1CCOC2(CCN(Cc3cc(F)cc(CCNC[C@H](O)c4ccc(O)c5[nH]c(=O)sc45)c3)CC2)C1 [Example 165, (R)-7-(2-(3-((4-(1H-indole-4-carbonyl)-1-oxa-4,9-diazaspiro[5.5]undecan-9-yl)methyl)-5-fluorophenethylamino)-1-hydroxyethyl)-4-hydroxybenzo[d]thiazol-2(3H)-one] | 89% | 11% |
| Cc1n[nH]c(CC(=O)N2CCOC3(CCN(Cc4cc(F)cc(CCNC[C@H](O)c5ccc(O)c6[nH]c(=O)sc56)c4)CC3)C2)n1 [Example 134, (R)-7-(2-(3-fluoro-5-((4-(2-(3-methyl-1H-1,2,4-triazol-5-yl)acetyl)-1-oxa-4,9-diazaspiro[5.5]undecan-9-yl)methyl)phenethylamino)-1-hydroxyethyl)-4-hydroxybenzo[d]thiazol-2(3H)-one] | 116% | 4% |
| CC(C)n1nnc2cc(C(=O)N3CCOC4(CCN(Cc5cc(F)cc(CCNC[C@H](O)c6ccc(O)c7[nH]c(=O)sc67)c5)CC4)C3)ccc21 [Example 142, (R)-7-(2-(3-fluoro-5-((4-(1-isopropyl-1H-benzo[d][1,2,3]triazole-5-carbonyl)-1-oxa-4,9-diazaspiro[5.5]undecan-9-yl)methyl)phenethylamino)-1-hydroxyethyl)-4-hydroxybenzo[d]thiazol-2(3H)-one] | 100% | -3% |
| Cc1cc(CC(=O)N2CCOC3(CCN(CCCCCCCCCNC[C@H](O)c4ccc(O)c5[nH]c(=O)sc45)CC3)C2)on1 [Example 208, (R)-4-hydroxy-7-(1-hydroxy-2-(9-(4-(2-(3-methylisoxazol-5-yl)acetyl)-1-oxa-4,9-diazaspiro[5.5]undecan-9-yl)nonylamino)ethyl)benzo[d]thiazol-2(3H)-one] | 98% | 88% |
| COc1ccccc1CC(=O)N1CCOC2(CCN(Cc3cc(F)cc(CCNC[C@H](O)c4ccc(O)c5[nH]c(=O)sc45)c3)CC2)C1 [Example 117, (R)-7-(2-(3-fluoro-5-((4-(2-(2-methoxyphenyl)acetyl)-1-oxa-4,9-diazaspiro[5.5]undecan-9-yl)methyl)phenethylamino)-1-hydroxyethyl)-4-hydroxybenzo[d]thiazol-2(3H)-one] | 101% | 22% |
| O=C(c1[nH]nc2c1CCCC2)N1CCOC2(CCN(Cc3cc(F)cc(CCNC[C@H](O)c4ccc(O)c5[nH]c(=O)sc45)c3)CC2)C1 [Example 146, (R)-7-(2-(3-fluoro-5-((4-(4,5,6,7-tetrahydro-2H-indazole-3-carbonyl)-1-oxa-4,9-diazaspiro[5.5]undecan-9-yl)methyl)phenethylamino)-1-hydroxyethyl)-4-hydroxybenzo[d]thiazol-2(3H)-one] | 96% | 41% |
| O=C(c1ccsc1Cl)N1CCOC2(CCN(CCCCCCCCCNC[C@H](O)c3ccc(O)c4[nH]c(=O)sc34)CC2)C1 [Example 212, (R)-7-(2-(9-(4-(2-chlorothiophene-3-carbonyl)-1-oxa-4,9-diazaspiro[5.5]undecan-9-yl)nonylamino)-1-hydroxyethyl)-4-hydroxybenzo[d]thiazol-2(3H)-one] | 93% | 88% |
| CC(C)c1cc(C(=O)N2CCOC3(CCN(Cc4cc(F)cc(CCNC[C@H](O)c5ccc(O)c6[nH]c(=O)sc56)c4)CC3)C2)no1 [Example 179, (R)-7-(2-(3-fluoro-5-((4-(5-isopropylisoxazole-3-carbonyl)-1-oxa-4,9-diazaspiro[5.5]undecan-9-yl)methyl)phenethylamino)-1-hydroxyethyl)-4-hydroxybenzo[d]thiazol-2(3H)-one] | 95% | 66% |

More lines, now with the values ahead:

| activation at 1 µM [1] | inhibition at 1 µM [2] | SMILES |
| --- | --- | --- |
| 68% | 51% | Cc1nc(CC(=O)N2CCOC3(CCN(CCOc4ccc(CNC[C@H](O)c5ccc(O)c6[nH]c(=O)sc56)cc4)CC3)C2)cs1 [Example 251, (R)-4-hydroxy-7-(1-hydroxy-2-(4-(2-(4-(2-(2-methylthiazol-4-yl)acetyl)-1-oxa-4,9-diazaspiro[5.5]undecan-9-yl)ethoxy)benzylamino)ethyl) benzo[d]thiazol-2(3H)-one] |
| 88% | 90% | CC(C)(C)c1nc(C(=O)N2CCOC3(CCN(CCCCCCCCCNC[C@H](O)c4ccc(O)c5[nH]c(=O)sc45)CC3)C2)cs1 [Example 216, (R)-7-(2-(9-(4-(2-tert-butylthiazole-4-carbonyl)-1-oxa-4,9-diazaspiro[5.5]undecan-9-yl)nonylamino)-1-hydroxyethyl)-4-hydroxybenzo[d]thiazol-2(3H)-one] |
| 92% | 34% | O=C(COc1ccccc1)N1CCOC2(CCN(CCOc3ccc(CNC[C@H](O)c4ccc(O)c5[nH]c(=O)sc45)cc3)CC2)C1 [Example 240, (R)-4-hydroxy-7-(1-hydroxy-2-(4-(2-(4-(2-phenoxyacetyl)-1-oxa-4,9-diazaspiro[5.5]undecan-9-yl)ethoxy)benzylamino)ethyl) benzo[d]thiazol-2(3H)-one] |
| 72% | 38% | Cc1sccc1C(=O)N1CCOC2(CCN(CCOc3ccc(CNC[C@H](O)c4ccc(O)c5[nH]c(=O)sc45)cc3)CC2)C1 [Example 246, (R)-4-hydroxy-7-(1-hydroxy-2-(4-(2-(4-(2-methylthiophene-3-carbonyl)-1-oxa-4,9-diazaspiro[5.5]undecan-9-yl)ethoxy)benzylamino)ethyl) benzo[d]thiazol-2(3H)-one] |
| 89% | 70% | O=C(CCCc1cccs1)N1CCOC2(CCN(CCOc3ccc(CNC[C@H](O)c4ccc(O)c5[nH]c(=O)sc45)cc3)CC2)C1 [Example 224, (R)-4-hydroxy-7-(1-hydroxy-2-(4-(2-(4-(4-(thiophen-2-yl)butanoyl)-1-oxa-4,9-diazaspiro[5.5]undecan-9-yl)ethoxy)benzylamino)ethyl) benzo[d]thiazol-2(3H)-one] |
